{
  "source": "patent US7141546B1",
  "about": "“CRFR2 selective ligands” (priority 2001, dated 2006)",
  "data": [
    {"molecular_target": "T1, CRFR2 (Homo sapiens, UniProt Q13324)", "T1 construct": "expressed in transfected cells", "T1 sequence (Q13324 1-438 isoform Q13324-2)": "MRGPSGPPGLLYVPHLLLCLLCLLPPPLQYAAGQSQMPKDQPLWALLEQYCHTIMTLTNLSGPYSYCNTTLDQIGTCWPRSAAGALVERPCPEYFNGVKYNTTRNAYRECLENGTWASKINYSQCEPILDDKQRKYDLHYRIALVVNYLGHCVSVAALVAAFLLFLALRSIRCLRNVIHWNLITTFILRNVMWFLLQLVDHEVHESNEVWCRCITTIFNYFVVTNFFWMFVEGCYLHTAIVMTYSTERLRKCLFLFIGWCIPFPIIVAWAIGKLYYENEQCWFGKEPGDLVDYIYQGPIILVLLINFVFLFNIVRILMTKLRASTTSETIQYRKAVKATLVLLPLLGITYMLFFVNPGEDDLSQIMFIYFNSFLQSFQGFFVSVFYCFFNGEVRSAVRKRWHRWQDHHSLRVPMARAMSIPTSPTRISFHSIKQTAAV", "assay": "cAMP accumulation in CHO cells stably transfected with CRFR2 and treated with CRF", "assay_type": "cell-based", "details": "CHO cells stably transfected with CRFR2, treated with CRF", "excerpt": "In addition to inhibiting CRF receptor binding, a candidate's CRF receptor antagonist activity may be established by the ability of the compound to antagonize an activity associated with CRF. For example, CRF is known to stimulate various biochemical processes, including adenylate cyclase activity. Therefore, compounds may be evaluated as CRF antagonists by their ability to antagonize CRF-stimulated adenylate cyclase activity by, for example, measuring cAMP levels. The inhibition of CRF-stimulated adenylate cyclase activity, determined by the assay described by G. Battaglia et al., Synapse 1:572 (1987), provides an assay for determining a compound's ability to antagonize CRF activity. Accordingly, CRF receptor antagonist activity may be determined by assay techniques which generally include an initial binding assay followed by such a cAMP screening protocol. […]", "values": [
      {"substance": "(cyclo 31–34)[Ac-D-2Nal^11, His^12, CML^13,39, Nle^17, Glu^31, Lys^34]-sauvagine(11–40) [Example 6]", "antagonism of CRF activity with respect to CRFR2 (cAMP accumulation)": "effectively antagonize CRF activity"},
      {"substance": "(cyclo 31–34)[Ac-D-3 Pal^11, His^12, CML^13,39, Nle^17, Glu^31, Lys^34]-sauvagine(11–40) [Example 7]", "antagonism of CRF activity with respect to CRFR2 (cAMP accumulation)": "effectively antagonize CRF activity"},
      {"substance": "(cyclo 31–34)[Ac-D-Cpa^11, His^12, CML^13,39, Nle^17, Glu^31, Lys^34]-sauvagine(11–40) [Example 5]", "antagonism of CRF activity with respect to CRFR2 (cAMP accumulation)": "effectively antagonize CRF activity"},
      {"substance": "(cyclo 31–34)[Ac-D-Leu^11, His^12, CML^13,39, Nle^17, Glu^31 Lys^34]-sauvagine(8–40) [Example 3]", "antagonism of CRF activity with respect to CRFR2 (cAMP accumulation)": "effectively antagonize CRF activity"},
      {"substance": "(cyclo 31–34)[Ac-D-Phe^11, His^12, CML^13,39, Nle^17, Glu^31, Orn^34]-sauvagine(11–40) [Example 8]", "antagonism of CRF activity with respect to CRFR2 (cAMP accumulation)": "effectively antagonize CRF activity"},
      {"substance": "(cyclo 31–34)[Ac-D-Tyr^11, His^12, CML^13,39, Nle^17, Glu^31, Lys^34]-sauvagine(11–40) [Example 4]", "antagonism of CRF activity with respect to CRFR2 (cAMP accumulation)": "effectively antagonize CRF activity"}
    ]}
  ]
}
